Like-named read-outs stand apart in the source and are kept apart here.
Biological target: T1, mUSP18 (Mus musculus, UniProt Q9WTV6)
T1 construct: (46-368); His-tag (N); made in house
T1 sequence (Q9WTV6 46-368): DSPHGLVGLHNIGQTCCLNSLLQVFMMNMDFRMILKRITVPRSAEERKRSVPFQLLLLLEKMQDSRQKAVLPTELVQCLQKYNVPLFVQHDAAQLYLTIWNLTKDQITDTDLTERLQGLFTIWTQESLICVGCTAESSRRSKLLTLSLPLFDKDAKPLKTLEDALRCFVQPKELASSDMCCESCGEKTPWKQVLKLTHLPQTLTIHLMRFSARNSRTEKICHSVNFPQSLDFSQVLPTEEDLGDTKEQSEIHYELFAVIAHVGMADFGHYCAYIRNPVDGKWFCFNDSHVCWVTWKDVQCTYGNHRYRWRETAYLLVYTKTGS
Assay: High-throughput screening, ISG15ct-RhoMP, single dose 1.25 µM
Assay type: biochemical, murine

[1] = mUSP18 %inhibition, carboxylic acid (CA) building block alone, read-out: %inh CA only
[2] = mUSP18 %inhibition, carboxylic acid (CA) with coupling reagents DIC/HOBT, read-out: %inh CA + DIC/HOBT

inhibition at 1.25 µM [1] [%]	inhibition at 1.25 µM [2] [%]	%inh CA only (mUSP18 %inhibition, carboxylic acid (CA) building block alone) [%]	%inh CA + DIC/HOBT (mUSP18 %inhibition, carboxylic acid (CA) with coupling reagents DIC/HOBT) [%]	inhibition of mUSP18 by individual CA's and coupling reagents (screened with and without DIC/HOBt)	SMILES
-2.55	-9.97	–	–	–	CN(C)S(=O)(=O)c1ccc(N2CCCCC2)c(C(=O)O)c1 [CA379]
-1.96	-1.91	–	–	–	O=C(O)c1csc(-c2ccncc2)n1 [CA298]
13.6	8.14	–	–	–	O=C(O)C1CC(OCc2ccccc2)C1 (centres unmarked) [CA119]
-11.3	-14.4	–	–	–	CC(C)(C)OC(=O)N1CC[C@H](C(=O)O)C1 [CA067]
0.33	14.3	–	–	–	O=C(O)c1cc(C2CC2)n[nH]1 [CA293]
-0.32	0.72	–	–	–	CC(C(=O)O)n1ccc(C2CC2)n1 (centres unmarked) [CA323]
9.72	3.17	–	–	–	O=C(O)c1cccc(COc2cccc(F)c2)c1 [CA194]
-3.85	-4.32	–	–	–	Cc1csc(-c2cccc(C(=O)O)c2)n1 [CA416]
5.62	3.45	–	–	–	COc1cc(C(=O)O)ccc1OCc1c(C)noc1C [CA147]
0.41	3.46	–	–	–	O=C(O)c1ccc(-c2ccccn2)s1 [CA341]
-4.22	-18.1	–	–	–	O=C(O)c1ccc(F)c(F)c1 [CA059]
-7.82	-15.2	–	–	–	CC(=O)CCC(=O)O [CA056]
8.99	-4.85	–	–	–	O=C(O)Cc1coc(-c2cccs2)n1 [CA423]
1.69	-1.03	–	–	–	O=C(O)c1ccc(N2CCCS2(=O)=O)cc1 [CA336]
-0.58	-8.94	–	–	–	O=C(O)c1cccc2cc3ccccc3cc12 [CA069]
4.69	5.35	–	–	–	O=C(O)Cc1ccn(-c2ccccc2)n1 [CA246]
-4.57	-15.7	–	–	–	CC(=O)Oc1ccccc1C(=O)O [CA071]
13.5	2.38	–	–	–	COc1ccc(C(=O)O)cc1S(=O)(=O)NCCc1ccccn1 [CA259]
-2.77	-3.75	–	–	–	O=C(O)c1c[nH]nc1-c1ccncc1 [CA408]
-10.2	-14.9	–	–	–	O=C(O)c1ccc2c(c1)ncn2C1CCCCO1 (centres unmarked) [CA084]
-3.59	-10.1	–	–	–	Cc1c(Br)cccc1C(=O)O [CA031]
0.78	-7.39	–	–	–	O=Cc1cccc(C(=O)O)c1 [CA046]
-5.44	4.89	–	–	–	O=C(O)c1ccc(S(=O)(=O)N2CCCCCC2)cc1 [CA469]
10.4	12.2	–	–	–	CCC(C(=O)O)n1nnc(-c2ccsc2)n1 (centres unmarked) [CA109]
-0.15	-1.5	–	–	–	COC1CC(C(=O)O)N(C(=O)OCc2ccccc2)C1 (centres unmarked) [CA464]
-5	-2.55	–	–	–	CC(=O)N1CCN(S(=O)(=O)c2cccc(C(=O)O)c2)CC1 [CA418]

inhibition at 1.25 µM [1] [%]	inhibition at 1.25 µM [2] [%]	%inh CA only (mUSP18 %inhibition, carboxylic acid (CA) building block alone) [%]	%inh CA + DIC/HOBT (mUSP18 %inhibition, carboxylic acid (CA) with coupling reagents DIC/HOBT) [%]	inhibition of mUSP18 by individual CA's and coupling reagents (screened with and without DIC/HOBt)	SMILES
0.85	6.5	–	–	–	O=C(O)C1(NS(=O)(=O)C=Cc2ccccc2)CCCC1 [CA334]
3.78	11.1	–	–	–	O=C(O)c1cccc(-c2cnco2)c1 [CA208]
22.3	5.42	–	–	–	O=C(O)CC(NS(=O)(=O)c1ccccc1)c1ccc(Cl)cc1 (centres unmarked) [CA138]
-7.18	-13	–	–	–	O=C(O)Cc1ccncc1 [CA017]
8.26	6.3	–	–	–	O=C(O)c1cc(Cn2cc(Cl)cn2)cs1 [CA275]
2.04	3.97	–	–	–	Cc1cc(NS(=O)(=O)c2cccc(C(=O)O)c2)no1 [CA180]
-6.3	-3.44	–	–	–	Cc1onc(C(=O)O)c1CN1CCN(C)CC1 [CA413]
9.19	16.2	–	–	–	O=C(O)CC(O)(c1nccn1Cc1ccccc1)C(F)(F)F (centres unmarked) [CA113]
-2.15	1.46	–	–	–	O=C(O)Cc1ccc(OCCOc2ccccc2)cc1 [CA296]
1.4	2.51	–	–	–	O=C(O)c1cc(S(=O)(=O)N2CCOCC2)c[nH]1 [CA199]
1.45	15.8	–	–	–	Cc1cc(COc2ccc(C(=O)O)cc2Br)no1 [CA257]
4.94	6.3	–	–	–	Cc1nc(COc2ccc(C(=O)O)cc2)no1 [CA276]
2.38	-14.8	–	–	–	O=C(O)c1ccccc1CCc1ccccc1 [CA026]
-3.43	-0.67	–	–	–	O=C(O)c1cc(S(=O)(=O)Nc2cccc(F)c2)ccc1F [CA436]
0.06	-15.8	–	–	–	O=C(O)CN1C(=O)c2ccccc2C1=O [CA049]
3.53	-1.94	–	–	–	Cc1ccccc1COc1cccc(CC(=O)O)c1 [CA288]
12.1	4.09	–	–	–	O=C(O)C1(n2cnnn2)CC1 [CA118]
8.08	12.8	–	–	–	O=C(O)Cc1coc(-c2ccccc2)n1 [CA136]
8.54	5.44	–	–	–	O=C(O)C1CCN(c2ccc(=O)[nH]n2)CC1 [CA173]
-5.69	-4.3	–	–	–	O=C(O)CCn1nc(C(F)(F)F)cc1C1CC1 [CA415]
1.24	3.87	–	–	–	Cc1nc(-c2c(C)c(C)nn(C)c2=O)sc1C(=O)O [CA153]
-2.4	-10.1	–	–	–	CCn1nc(C(C)C)cc1C(=O)N1CCCCC1C(=O)O (centres unmarked) [CA431]
12.9	15	–	–	–	Cc1cnn(-c2c(C(=O)O)c(C)nn2C)c1 [CA110]
1.07	-3.16	–	–	–	O=C(O)Cc1csc(-c2nnc[nH]2)n1 [CA286]
-4.57	-8.55	–	–	–	O=C(O)c1ccc(-c2nnco2)cc1 [CA383]
15.3	13.1	–	–	–	O=C(O)Cc1csc(-c2cnccn2)n1 [CA092]

inhibition at 1.25 µM [1] [%]	inhibition at 1.25 µM [2] [%]	%inh CA only (mUSP18 %inhibition, carboxylic acid (CA) building block alone) [%]	%inh CA + DIC/HOBT (mUSP18 %inhibition, carboxylic acid (CA) with coupling reagents DIC/HOBT) [%]	inhibition of mUSP18 by individual CA's and coupling reagents (screened with and without DIC/HOBt)	SMILES
-0.24	-1.16	–	–	–	Cc1ccc(CN2C(=O)CCC2C(=O)O)cc1 (centres unmarked) [CA337]
-6.19	9.63	–	–	–	O=C(O)c1ccc(F)c(S(=O)(=O)N2CCC2)c1 [CA305]
-1.59	1.03	–	–	–	Cn1cc(S(=O)(=O)N2CCOCC2)cc1C(=O)O [CA324]
–	–	-2.06	-9.49	–	Cc1ccc(Br)c(C(=O)O)c1 [CA033]
8.46	4.42	–	–	–	O=C(O)c1noc(-c2cccc(Cl)c2)n1 [CA169]
-1.44	-3.17	–	–	–	O=C(O)c1cccc(-c2ncon2)c1 [CA463]
-0.96	-9.25	–	–	–	CCCN(CCC)S(=O)(=O)c1ccc(C(=O)O)cc1 [CA041]
2.37	-9.4	–	–	–	CC(C)n1nccc1[1C@@H]1OCC[1C@H]1C(=O)O [CA449]
2.61	2.83	–	–	–	CC(C(=O)O)n1nc(C(F)(F)F)cc1C1CC1 (centres unmarked) [CA227]
-8.86	-7.67	–	–	–	O=C(O)c1ccc(-c2ccncc2)[nH]c1=O [CA412]
-3.17	14.7	–	–	–	O=C(O)c1cnn(-c2ccc(Br)cc2)c1 [CA303]
11.4	14.1	–	–	–	Cc1nc(-c2cc(C)n(CCC(=O)O)c2C)cs1 [CA280]
-2.57	-1.91	–	–	–	Cc1cc(C(=O)O)c(C)n1-c1cccnc1 [CA297]
7.48	7.42	–	–	–	O=C(O)c1cnn(-c2ccncc2)c1 [CA125]
-5.75	4.6	–	–	–	Cc1sc(-n2cnnn2)c(C(=O)O)c1C [CA327]
-3.61	-0.87	–	–	–	O=C(O)c1nn(-c2ccccc2)c(=O)[nH]c1=O [CA441]
4.86	3.56	–	–	–	O=C(O)c1cc(S(=O)(=O)NCCCN2CCCC2=O)ccc1Cl [CA230]
0.9	-6.97	–	–	–	O=C(O)c1cc(S(=O)(=O)Nc2nccs2)ccc1F [CA403]
-0.46	6	–	–	–	O=C(O)c1cccnc1N1CCCCC1 [CA251]
-3.79	17	–	–	–	O=C(O)c1cccnc1-n1cccn1 [CA430]
1.03	-7.73	–	–	–	O=Cc1ccc(O)c(C(=O)O)c1 [CA040]
18.6	13.9	–	–	–	O=C(O)CCN(Cc1ccccc1)S(=O)(=O)c1c(Cl)cccc1Cl [CA093]
21	4.16	–	–	–	O=C(O)c1coc(-c2cccnc2)n1 [CA210]
-10.9	63.9	–	–	could inhibit mUSP18	O=C(O)Cc1ccc(-n2cccc2)cc1 [CA391]
11.4	5.98	–	–	–	CCn1cc(S(=O)(=O)N2CCC(C(=O)O)CC2)cn1 [CA122]

SMILES	inhibition at 1.25 µM [1] [%]	inhibition at 1.25 µM [2] [%]	%inh CA only (mUSP18 %inhibition, carboxylic acid (CA) building block alone) [%]	%inh CA + DIC/HOBT (mUSP18 %inhibition, carboxylic acid (CA) with coupling reagents DIC/HOBT) [%]	inhibition of mUSP18 by individual CA's and coupling reagents (screened with and without DIC/HOBt)
O=C(O)c1cnn(CC2CCC2)c1 [CA454]	-1.23	-8.94	–	–	–
O=C(O)C(Cl)(Cl)Cl [CA073]	4.86	-12.6	–	–	–
Cc1cc(C(=O)O)c(C)n1C1CC1 [CA239]	7.06	5.98	–	–	–

From article PMC12668310, “High‐Throughput Synthesis and Screening of a Cyanimide Library Identifies Selective Inhibitors of ISG15‐Specific Protease mUSP18” (Angewandte Chemie (International Ed. in English), 2025)
